# Experimental data: article PMC12141164, “Phase-1 study of vamotinib (PF-114), a 3rd generation BCR::ABL1 tyrosine kinase-inhibitor, in chronic myeloid leukaemia” (Annals of Hematology, 2025)
# Several values for one entry are separate records, joined by “and”; a condition that tells them apart may be missing. Equal values may be shown once. Marks after values point to notes of the source that are not given here.
# Test system: BCR::ABL1 positive CML
# Experiment: Phase-1 study: haematological, cytogenetic and molecular response
# Assay type: in vivo, human
# Settings: for Best response achieved on PF-114: individual patients
# Method: Haematological response evaluations were done on the first day of each cycle of therapy; molecular response on the first day of cycles 1, 2, 4, 7, 10, 13 and then every three months; cytogenetic response – at screening and on the first days of cycles 4, 7, 13 and every three months thereafter, provided that there was no major molecular response.
# Cytogenetic response was assessed by differential staining of chromosomes and if uninformative, by fluorescent in situ hybridization (FISH). Mutations in BCR::ABL1 were assessed by Sanger and next generation sequencing (NGS). Sanger sequencing was done at each center; NGS analyses were done in the laboratory of Prof. Susan Branford, University of Adelaide. Discordances were resolved as described in Table S2. Molecular response was assessed using the ratio of BCR::ABL1 to ABL1 measured according to the IS [9].
# [1] = Subjects after ponatinib (N = 5)
compound,measurement,setting,value
Cc1ccc(C(=O)Nc2ccc(CN3CCN(C)CC3)c(C(F)(F)F)c2)cc1C#Cc1nnc2ccccn12 [vamotinib],Subjects with loss of MCyR,Cohort 5 500 mg N=3,0 no. (%)
same,Subjects with loss of MMR,Cohort 5 500 mg N=3,0 no. (%)
same,CCyR achieved at treatment,Cohort 6 600 mg N=6,0 no. (%)
same,CCyR by 6 months,Cohort 6 600 mg N=6,0 no. (%)
same,CCyR by 12 months,Cohort 6 600 mg N=6,0 no. (%)
same,CHR achieved at treatment,Cohort 6 600 mg N=6,2 (33) no. (%)
same,CHR by the 3 months,Cohort 6 600 mg N=6,2 (33) no. (%)
same,CHR by the 6th months,Cohort 6 600 mg N=6,2 (33) no. (%)
same,CHR by the 12th months,Cohort 6 600 mg N=6,2 (33) no. (%)
same,MCyR achieved at treatment,Cohort 6 600 mg N=6,0 no. (%)
same,MCyR by 6 months,Cohort 6 600 mg N=6,0 no. (%)
same,MCyR by 12 months,Cohort 6 600 mg N=6,0 no. (%)
same,MMR achieved at treatment,Cohort 6 600 mg N=6,0 no. (%)
same,MMR by 6 months,Cohort 6 600 mg N=6,0 no. (%)
same,MMR by 12 months,Cohort 6 600 mg N=6,0 no. (%)
same,MMR by 24 months,Cohort 6 600 mg N=6,0 no. (%)
same,Subjects with loss of CCyR,Cohort 6 600 mg N=6,0 no. (%)
same,Subjects with loss of CHR,Cohort 6 600 mg N=6,0 no. (%)
same,Subjects with loss of MCyR,Cohort 6 600 mg N=6,0 no. (%)
same,Subjects with loss of MMR,Cohort 6 600 mg N=6,0 no. (%)
same,CCyR achieved at treatment,Cohort 7 750 mg N=4,0 no. (%)
same,CCyR by 6 months,Cohort 7 750 mg N=4,0 no. (%)
same,CCyR by 12 months,Cohort 7 750 mg N=4,0 no. (%)
same,CHR achieved at treatment,Cohort 7 750 mg N=4,1 (25) no. (%)
same,CHR by the 3 months,Cohort 7 750 mg N=4,1 (25) no. (%)
same,CHR by the 6th months,Cohort 7 750 mg N=4,1 (25) no. (%)
same,CHR by the 12th months,Cohort 7 750 mg N=4,1 (25) no. (%)
same,MCyR achieved at treatment,Cohort 7 750 mg N=4,0 no. (%)
same,MCyR by 6 months,Cohort 7 750 mg N=4,0 no. (%)
same,MCyR by 12 months,Cohort 7 750 mg N=4,0 no. (%)
same,MMR achieved at treatment,Cohort 7 750 mg N=4,0 no. (%)
same,MMR by 6 months,Cohort 7 750 mg N=4,0 no. (%)
same,MMR by 12 months,Cohort 7 750 mg N=4,0 no. (%)
same,MMR by 24 months,Cohort 7 750 mg N=4,0 no. (%)
same,Subjects with loss of CCyR,Cohort 7 750 mg N=4,0 no. (%)
same,Subjects with loss of CHR,Cohort 7 750 mg N=4,0 no. (%)
same,Subjects with loss of MCyR,Cohort 7 750 mg N=4,0 no. (%)
same,Subjects with loss of MMR,Cohort 7 750 mg N=4,0 no. (%)
same,CCyR achieved at treatment,Cohort 8 300 mg N=9,5 no. (%) and 5 (56) no. (%)
same,CCyR by 6 months,Cohort 8 300 mg N=9,3 (33) no. (%)
same,CCyR by 12 months,Cohort 8 300 mg N=9,4 (44) no. (%)
same,CHR achieved at treatment,Cohort 8 300 mg N=9,4 (100) no. (%)
same,CHR by the 3 months,Cohort 8 300 mg N=9,4 (100) no. (%)
same,CHR by the 6th months,Cohort 8 300 mg N=9,4 (100) no. (%)
same,CHR by the 12th months,Cohort 8 300 mg N=9,4 (100) no. (%)
same,MCyR achieved at treatment,Cohort 8 300 mg N=9,6 no. (%) and 6 (86) no. (%)
same,MCyR by 6 months,Cohort 8 300 mg N=9,4 (57) no. (%)
same,MMR achieved at treatment,Cohort 8 300 mg N=9,4 no. (%) and 4 (44) no. (%)
same,MMR by 6 months,Cohort 8 300 mg N=9,3 (33) no. (%)
same,MMR by 12 months,Cohort 8 300 mg N=9,3 (33) no. (%)
same,MMR by 24 months,Cohort 8 300 mg N=9,4 (44) no. (%)
same,Subjects with loss of CCyR,Cohort 8 300 mg N=9,1 (20) no. (%)
same,Subjects with loss of CHR,Cohort 8 300 mg N=9,2 (50) no. (%)
same,Subjects with loss of MCyR,Cohort 8 300 mg N=9,1 (17) no. (%)
same,Subjects with loss of MMR,Cohort 8 300 mg N=9,0 no. (%)
same,CCyR,[1],none and 0/5^*
same,MCyR,[1],none and 0/5
same,MMR,[1],0/5^*
same,MMR,Subjects with BCR::ABL1^T315I (N = 16),0/16
same,CCyR achieved at treatment,Total N=51,10 no. (%) and 10 (20) no. (%)
same,CCyR by 6 months,Total N=51,6 (12) no. (%)
same,CCyR by 12 months,Total N=51,7 (14) no. (%)
same,CHR achieved at treatment,Total N=51,14 no. (%) and 14 (47) no. (%)
same,CHR by the 3 months,Total N=51,11 (37) no. (%)
same,CHR by the 6th months,Total N=51,11 (37) no. (%)
same,CHR by the 12th months,Total N=51,14 (47) no. (%)
same,MCyR achieved at treatment,Total N=51,14 no. (%) and 14 (32) no. (%)
same,MCyR by 6 months,Total N=51,10 (23) no. (%)
same,MCyR by 12 months,Total N=51,11 (25) no. (%)
same,MMR achieved at treatment,Total N=51,7 no. (%) and 7 (14) no. (%)
same,MMR by 6 months,Total N=51,4 (8) no. (%)
same,MMR by 12 months,Total N=51,4 (8) no. (%)
same,MMR by 24 months,Total N=51,7 (14) no. (%)
same,Subjects with loss of CCyR,Total N=51,2 (20) no. (%)
same,Subjects with loss of CHR,Total N=51,8 no. (%) and 8 (57) no. (%)
same,Subjects with loss of MCyR,Total N=51,2 (14) no. (%)
same,subjects achieving deep molecular response MR4.5,dose of 300 mg,One
same,Median time to achieving a CHR,in vivo,3.8 months
same,median time to MMR,in vivo,"5,6 months"
same,median time to achievement of CCyR,in vivo,5.6 months
same,median time to achievement of MCyR,in vivo,4.5 months
same,Best response achieved on PF-114,dose cohort 50 mg,CHR
same,Best response achieved on PF-114,"dose cohort 100 mg, listed as PF-114",MCyR and MMR
same,Best response achieved on PF-114,dose cohort 125 mg,MR 4.5
same,Best response achieved on PF-114,"dose cohort 200 mg, listed as PF-114",CHR and MCyR and CCyR and MR 4
same,Best response achieved on PF-114,"dose cohort 300 mg, listed as PF-114",MMR and CHR and MR 4 and CCyR and MR 4.5
same,Best response achieved on PF-114,"dose cohort 400 mg, listed as PF-114",CHR and CCyR and MCyR
same,Best response achieved on PF-114,dose cohort 600 mg,CHR
same,Best response achieved on PF-114,dose cohort 750 mg,CHR
same,time to CHR,"one subject, myeloid variant M0 blast crisis, i(17) and BCR::ABL1^T315I",5 weeks
same,duration of CCyR,subjects with BCR::ABL1^T315I,2.8 months
same,duration of MCyR,subjects with BCR::ABL1^T315I,2.8 months
